According to ChEMBL document CHEMBL4616727, “Characterization of Conformationally Constrained Benzanilide Scaffolds for Potent and Selective HDAC8 Targeting” (J Med Chem, 2020):

Experiments:
[1] = Effective permeability at pH 7.4 by PAMPA method; format: ADME
[2] = MRT in CD1 mouse at 100 mg/kg, ip measured after 5 mins to 12 hrs by LC-MS/MS analysis; format: ADME, organism-based; settings: in vivo
[3] = Effective permeability assessed as drug recovery at pH 7.4 by PAMPA method; format: ADME; settings: read-out: Drug recovery
[4] = AUClast in CD1 mouse at 100 mg/kg, ip measured after 5 mins to 12 hrs by LC-MS/MS analysis; format: ADME, organism-based; set-up: time upper 12 hr, time lower 0.083 hr, dose 100 mg/kg, route intraperitoneal; settings: in vivo
[5] = Cmax in CD1 mouse at 100 mg/kg, ip measured after 5 mins to 12 hrs by LC-MS/MS analysis; format: ADME, organism-based; set-up: dose 100 mg/kg, route intraperitoneal; settings: in vivo
[6] = Half life in CD1 mouse at 100 mg/kg, ip measured after 5 mins to 12 hrs by LC-MS/MS analysis; format: ADME, organism-based; settings: in vivo
Histone deacetylase 9 = Histone deacetylase 9 (Homo sapiens, UniProt Q9UKV0); assay: Inhibition of C-terminal His-tagged human HDAC9 (604 to 1066residues) expressed in baculovirus expression system using […] substrate incubated for 3 hrs by EMSA method
Chain of Histone deacetylase 9 (Q9UKV0 whole entry): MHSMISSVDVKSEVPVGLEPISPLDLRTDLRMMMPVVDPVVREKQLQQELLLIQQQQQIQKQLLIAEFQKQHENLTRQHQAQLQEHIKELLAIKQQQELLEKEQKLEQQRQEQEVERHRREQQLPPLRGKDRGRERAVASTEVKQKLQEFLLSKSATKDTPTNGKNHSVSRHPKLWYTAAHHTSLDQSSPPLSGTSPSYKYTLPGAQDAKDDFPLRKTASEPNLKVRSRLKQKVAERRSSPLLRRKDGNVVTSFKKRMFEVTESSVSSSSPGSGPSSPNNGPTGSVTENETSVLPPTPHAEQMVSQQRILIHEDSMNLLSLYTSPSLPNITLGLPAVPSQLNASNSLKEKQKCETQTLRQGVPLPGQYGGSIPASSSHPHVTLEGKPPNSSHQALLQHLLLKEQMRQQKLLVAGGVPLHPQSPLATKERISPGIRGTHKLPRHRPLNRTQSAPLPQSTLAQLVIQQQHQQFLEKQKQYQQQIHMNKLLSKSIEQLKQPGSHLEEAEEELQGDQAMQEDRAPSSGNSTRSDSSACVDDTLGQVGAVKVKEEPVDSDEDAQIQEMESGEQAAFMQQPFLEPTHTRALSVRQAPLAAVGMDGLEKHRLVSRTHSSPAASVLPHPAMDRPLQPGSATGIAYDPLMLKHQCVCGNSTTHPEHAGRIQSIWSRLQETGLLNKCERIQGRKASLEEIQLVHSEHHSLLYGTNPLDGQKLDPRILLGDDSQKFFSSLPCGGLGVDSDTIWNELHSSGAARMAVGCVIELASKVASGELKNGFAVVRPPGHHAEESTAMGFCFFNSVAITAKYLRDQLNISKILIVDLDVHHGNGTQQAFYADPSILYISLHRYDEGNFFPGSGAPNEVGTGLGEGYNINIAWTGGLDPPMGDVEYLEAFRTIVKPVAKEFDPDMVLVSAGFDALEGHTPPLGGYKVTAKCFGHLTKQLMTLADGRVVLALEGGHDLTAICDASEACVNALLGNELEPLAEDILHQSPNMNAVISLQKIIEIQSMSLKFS

Histone deacetylase 7 = target: T1, Histone deacetylase 7 (Homo sapiens, UniProt Q8WUI4); assay: Inhibition of N-terminal GST-tagged human HDAC7 (518 to end residues) expressed in baculovirus expression system using FAM-RHKK(TF-Ac)-NH2 substrate incubated for 3 hrs by EMSA method
T1 sequence (Q8WUI4 whole entry): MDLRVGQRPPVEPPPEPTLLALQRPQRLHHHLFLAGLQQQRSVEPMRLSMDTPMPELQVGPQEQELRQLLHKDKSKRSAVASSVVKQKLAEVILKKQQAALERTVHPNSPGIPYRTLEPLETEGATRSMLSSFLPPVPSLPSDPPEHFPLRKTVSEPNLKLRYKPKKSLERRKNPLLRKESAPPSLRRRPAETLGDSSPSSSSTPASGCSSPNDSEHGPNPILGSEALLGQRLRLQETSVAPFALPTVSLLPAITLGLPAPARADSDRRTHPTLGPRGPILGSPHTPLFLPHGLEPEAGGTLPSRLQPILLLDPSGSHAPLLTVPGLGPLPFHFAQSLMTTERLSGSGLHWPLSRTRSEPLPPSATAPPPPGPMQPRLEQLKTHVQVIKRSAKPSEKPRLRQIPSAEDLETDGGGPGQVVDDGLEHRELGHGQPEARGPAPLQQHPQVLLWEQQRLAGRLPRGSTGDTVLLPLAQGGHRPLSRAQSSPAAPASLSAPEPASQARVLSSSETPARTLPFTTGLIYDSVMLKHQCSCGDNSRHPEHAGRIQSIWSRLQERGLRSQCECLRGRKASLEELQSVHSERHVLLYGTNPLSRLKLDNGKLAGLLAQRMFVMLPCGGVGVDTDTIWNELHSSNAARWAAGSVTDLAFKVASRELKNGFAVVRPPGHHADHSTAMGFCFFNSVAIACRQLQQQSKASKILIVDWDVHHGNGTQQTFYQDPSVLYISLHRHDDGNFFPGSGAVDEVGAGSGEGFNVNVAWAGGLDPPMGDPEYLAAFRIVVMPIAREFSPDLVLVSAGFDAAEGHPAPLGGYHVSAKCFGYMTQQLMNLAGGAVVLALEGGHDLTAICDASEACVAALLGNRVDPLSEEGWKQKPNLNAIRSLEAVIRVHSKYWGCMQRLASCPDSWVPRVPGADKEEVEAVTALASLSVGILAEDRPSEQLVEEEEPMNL

[7] = target: T2, Polyamine deacetylase HDAC10 (Homo sapiens, UniProt Q969S8); assay: Inhibition of N-terminal His-tagged full length human HDAC10 expressed in baculovirus expression system using FAM-TSRHK(Ac)KL-NH2 substrate incubated for 17 hrs by EMSA method
T2 sequence (Q969S8 whole entry): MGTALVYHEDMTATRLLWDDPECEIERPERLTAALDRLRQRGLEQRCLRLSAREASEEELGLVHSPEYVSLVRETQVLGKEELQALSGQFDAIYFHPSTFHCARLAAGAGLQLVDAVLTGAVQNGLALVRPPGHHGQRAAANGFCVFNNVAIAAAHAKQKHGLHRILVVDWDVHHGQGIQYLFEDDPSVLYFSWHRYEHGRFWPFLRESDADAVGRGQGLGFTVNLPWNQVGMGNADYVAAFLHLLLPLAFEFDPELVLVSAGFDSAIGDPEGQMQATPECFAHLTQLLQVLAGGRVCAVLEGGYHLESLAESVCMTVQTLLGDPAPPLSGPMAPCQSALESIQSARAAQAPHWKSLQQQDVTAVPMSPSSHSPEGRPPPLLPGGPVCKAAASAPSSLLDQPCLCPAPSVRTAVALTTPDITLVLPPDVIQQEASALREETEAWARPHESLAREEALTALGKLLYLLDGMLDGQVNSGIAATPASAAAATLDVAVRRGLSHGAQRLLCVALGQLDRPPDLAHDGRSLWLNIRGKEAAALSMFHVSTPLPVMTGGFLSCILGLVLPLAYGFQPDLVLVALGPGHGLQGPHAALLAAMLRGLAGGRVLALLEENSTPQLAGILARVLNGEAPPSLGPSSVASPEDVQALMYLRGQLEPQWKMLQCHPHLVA

Histone deacetylase 5 = Histone deacetylase 5 (Homo sapiens, UniProt Q9UQL6); assay: Inhibition of N-terminal GST-tagged full length human HDAC5 expressed in baculovirus expression system using FAM-RHKK(TF-Ac)-NH2 substrate incubated for 2 hrs by EMSA method
Chain of Histone deacetylase 5 (Q9UQL6 whole entry): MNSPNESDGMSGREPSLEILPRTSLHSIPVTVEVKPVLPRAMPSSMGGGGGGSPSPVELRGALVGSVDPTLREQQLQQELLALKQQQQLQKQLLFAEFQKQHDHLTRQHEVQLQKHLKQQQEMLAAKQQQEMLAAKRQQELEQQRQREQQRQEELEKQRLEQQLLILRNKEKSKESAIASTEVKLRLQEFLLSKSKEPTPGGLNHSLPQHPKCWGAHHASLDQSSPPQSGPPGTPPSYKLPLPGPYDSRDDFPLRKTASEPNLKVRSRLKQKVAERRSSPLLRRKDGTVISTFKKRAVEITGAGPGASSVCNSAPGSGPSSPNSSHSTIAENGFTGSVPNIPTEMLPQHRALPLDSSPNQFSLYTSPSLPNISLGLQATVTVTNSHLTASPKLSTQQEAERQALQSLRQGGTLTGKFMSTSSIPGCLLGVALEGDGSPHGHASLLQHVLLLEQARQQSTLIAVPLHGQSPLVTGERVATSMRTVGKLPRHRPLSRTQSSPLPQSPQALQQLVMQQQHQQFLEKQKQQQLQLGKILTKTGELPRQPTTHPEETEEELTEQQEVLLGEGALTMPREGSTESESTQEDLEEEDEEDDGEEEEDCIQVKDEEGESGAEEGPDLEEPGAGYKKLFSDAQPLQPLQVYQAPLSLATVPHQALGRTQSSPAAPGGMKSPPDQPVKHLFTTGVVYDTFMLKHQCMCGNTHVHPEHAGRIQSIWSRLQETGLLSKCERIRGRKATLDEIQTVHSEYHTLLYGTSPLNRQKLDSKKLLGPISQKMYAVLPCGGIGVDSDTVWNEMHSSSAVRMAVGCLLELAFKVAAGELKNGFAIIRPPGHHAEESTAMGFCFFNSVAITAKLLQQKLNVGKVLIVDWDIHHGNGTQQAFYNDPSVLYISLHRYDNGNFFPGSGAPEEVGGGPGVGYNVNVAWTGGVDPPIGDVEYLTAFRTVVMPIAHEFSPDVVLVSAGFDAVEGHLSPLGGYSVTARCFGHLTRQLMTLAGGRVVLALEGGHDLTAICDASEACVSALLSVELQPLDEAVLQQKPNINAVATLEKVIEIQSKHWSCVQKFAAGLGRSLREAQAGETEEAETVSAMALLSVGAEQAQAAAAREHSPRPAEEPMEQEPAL

Histone deacetylase 4 = Histone deacetylase 4 (Homo sapiens, UniProt P56524); assay: Inhibition of C-terminal GST-tagged human HDAC4 (101 to 1084 resides) expressed in baculovirus expression system using FAM-RHKK(TF-Ac)-NH2 substrate incubated for […] by EMSA method
Chain of Histone deacetylase 4 (P56524 whole entry): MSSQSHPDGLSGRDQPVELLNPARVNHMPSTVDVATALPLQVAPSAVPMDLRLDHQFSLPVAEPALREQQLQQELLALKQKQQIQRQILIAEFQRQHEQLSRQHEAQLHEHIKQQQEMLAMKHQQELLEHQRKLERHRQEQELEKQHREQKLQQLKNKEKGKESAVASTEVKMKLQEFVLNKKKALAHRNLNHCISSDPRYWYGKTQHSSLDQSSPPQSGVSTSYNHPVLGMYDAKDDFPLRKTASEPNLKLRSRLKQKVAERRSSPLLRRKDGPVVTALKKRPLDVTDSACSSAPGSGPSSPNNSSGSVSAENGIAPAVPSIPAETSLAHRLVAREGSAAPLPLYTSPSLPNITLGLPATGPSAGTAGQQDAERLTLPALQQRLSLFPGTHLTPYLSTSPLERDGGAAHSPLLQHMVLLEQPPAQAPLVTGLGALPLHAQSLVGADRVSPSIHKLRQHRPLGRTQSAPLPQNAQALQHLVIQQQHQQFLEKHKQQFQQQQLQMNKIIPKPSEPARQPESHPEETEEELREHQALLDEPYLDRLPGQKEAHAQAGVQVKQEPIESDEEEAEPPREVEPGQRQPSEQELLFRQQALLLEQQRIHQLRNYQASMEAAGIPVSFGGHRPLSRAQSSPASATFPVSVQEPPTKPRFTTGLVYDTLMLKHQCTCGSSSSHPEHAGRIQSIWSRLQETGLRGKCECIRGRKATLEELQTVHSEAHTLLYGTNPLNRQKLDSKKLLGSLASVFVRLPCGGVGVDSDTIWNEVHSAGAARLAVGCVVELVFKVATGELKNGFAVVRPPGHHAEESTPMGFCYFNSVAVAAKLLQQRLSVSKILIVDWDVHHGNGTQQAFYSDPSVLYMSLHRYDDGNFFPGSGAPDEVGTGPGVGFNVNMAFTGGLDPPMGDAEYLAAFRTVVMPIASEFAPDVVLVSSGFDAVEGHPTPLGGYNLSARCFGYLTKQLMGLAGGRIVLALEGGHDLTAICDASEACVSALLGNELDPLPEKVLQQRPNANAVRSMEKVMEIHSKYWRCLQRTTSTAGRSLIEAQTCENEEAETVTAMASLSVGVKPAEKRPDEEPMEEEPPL

BE(2)-C = assay: Inhibition of colony formation in human BE(2)-C cells

| Structure (SMILES) | log(permeability) [1] | MRT [2] [h] | recovery [3] [%] | AUC(0-t) [4] [ng·h/mL] | Cmax [5] [µM] | half-life [6] [h] | IC50 (Histone deacetylase 9) [µM] | IC50 (Histone deacetylase 7) [µM] | IC50 [7] [µM] | IC50 (Histone deacetylase 5) [µM] | IC50 (Histone deacetylase 4) [µM] | IC50 (BE(2)-C) [µM] |
| --- | --- | --- | --- | --- | --- | --- | --- | --- | --- | --- | --- | --- |
| CC(C)N(C(=O)c1cccc(OC(F)(F)F)c1)c1ccc(C(=O)NO)cc1 | -5.8 | 3 | 102 |  |  |  |  |  |  |  |  |  |
| COc1ccc(Cn2ccc3ccc(C(=O)NO)cc32)cc1 |  | 0.45 |  | 6950 | 57.6 | 3.3 |  |  |  |  |  |  |
| CC(C)N(C(=O)c1cc(C(F)(F)F)cc(C(F)(F)F)c1)c1ccc(C(=O)NO)cc1 | -5.42 |  | 95.4 |  |  |  | > 10 | > 10 | > 10 | > 10 | > 10 |  |
| CC(C)(C)c1cccc(C(=O)N(CC2CC2)c2ccc(C(=O)NO)cc2)c1 | -5.7 | 2.77 | 102 |  |  |  |  |  |  |  |  | 2.1 |
